The values that follow come from patent US10160762B2, “6-alkyl dihydropyrazolopyrimidinone compounds as PDE2 inhibitors” (Merck Sharp & Dohme Corp., priority 2015, dated 2018).

Each structure is given as a SMILES string.

This assay has as its target T1, Rhesus PDE2A3 (Macaca mulatta, UniProt B3VTJ2).
T1 construct: made in house; host or cells: AD293 cells, transient transfection; supernatant of sonicated lysate
T1 sequence (B3VTJ2 1-941): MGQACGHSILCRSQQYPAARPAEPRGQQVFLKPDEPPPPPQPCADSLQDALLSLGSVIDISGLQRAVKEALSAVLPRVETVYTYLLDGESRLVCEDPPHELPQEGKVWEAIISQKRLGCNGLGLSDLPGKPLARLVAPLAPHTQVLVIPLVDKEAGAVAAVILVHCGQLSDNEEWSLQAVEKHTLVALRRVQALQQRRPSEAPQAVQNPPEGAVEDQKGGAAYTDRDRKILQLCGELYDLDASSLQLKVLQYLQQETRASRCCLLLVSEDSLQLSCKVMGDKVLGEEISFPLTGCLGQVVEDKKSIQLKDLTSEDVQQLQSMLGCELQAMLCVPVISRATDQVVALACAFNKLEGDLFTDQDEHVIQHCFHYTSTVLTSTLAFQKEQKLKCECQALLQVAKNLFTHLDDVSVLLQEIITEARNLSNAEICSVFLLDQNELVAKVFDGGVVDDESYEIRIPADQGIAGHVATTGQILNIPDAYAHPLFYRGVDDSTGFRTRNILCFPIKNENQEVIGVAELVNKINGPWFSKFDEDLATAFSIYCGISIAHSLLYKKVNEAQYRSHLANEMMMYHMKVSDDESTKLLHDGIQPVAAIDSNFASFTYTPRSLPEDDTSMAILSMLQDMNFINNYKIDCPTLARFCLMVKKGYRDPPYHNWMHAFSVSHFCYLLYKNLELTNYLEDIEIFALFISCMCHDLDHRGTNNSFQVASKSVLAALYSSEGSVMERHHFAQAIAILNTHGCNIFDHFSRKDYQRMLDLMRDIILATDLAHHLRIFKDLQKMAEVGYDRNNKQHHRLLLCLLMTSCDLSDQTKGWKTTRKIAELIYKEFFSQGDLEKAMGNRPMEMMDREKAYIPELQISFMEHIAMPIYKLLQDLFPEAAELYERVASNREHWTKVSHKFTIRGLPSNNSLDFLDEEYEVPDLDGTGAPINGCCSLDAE
Put plainly: PDE2 fluorescence polarization (IMAP FP) inhibition assay, rhesus PDE2A3. Format: biochemical, rhesus macaque. The settings on record: Lab B; read-out: Rhesus PDE2 Ki (nM) Lab B. An outline of the steps:
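Enzyme source was the lysate supernatant of AD293 cells transiently expressing rhesus PDE2A3, diluted to give 20% conversion of 50 nM FAM-cAMP, with 1 µM cGMP as activator. Buffer was 10 mM Tris pH 7.2, 10 mM MgCl2, 1 mM DTT.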
A general note: In fluorescence polarisation assays a small probe gives low polarisation when free and higher when bound to something large.

On to `Cc1nc2c(c(CO)nn2C(C)c2ccc(OC(F)F)cc2)c(=O)[nH]1` (single isomer, unassigned) [Example 21, (S)- or (R)-1-(1-(4-(Difluoromethoxy)phenyl)ethyl)-3-(hydroxymethyl)-6-methyl-1H-pyrazolo[3,4-d]pyrimidin-4(5H)-one], for which the Ki turned out to be 2.9 nM.
`Cc1nc2c(c(CC#N)nn2C(C)c2ccc(C(F)(F)F)cc2)c(=O)[nH]1` (single isomer, unassigned) [Example 280]: the Ki came to 71 nM.
Turning to `Cc1nc2c(c(CF)nn2C(c2ccc(C(F)(F)F)cc2)C(C)(C)C)c(=O)[nH]1` (single isomer, unassigned) [Example 234, (S)- or (R)-1-(2,2-Dimethyl-1-(4-(trifluoromethyl)phenyl)propyl)-3-(fluoromethyl)-6-methyl-1H-pyrazolo[3,4-d]pyrimidin-4(5H)-one], the Ki stood at 15 nM.
For `Cc1nc2c(c(CO)nn2C(c2ccc(C(C)(C)C)cc2)C2CC2)c(=O)[nH]1` (single isomer, unassigned) [Example 89, (S)- or (R)-1-((4-tert-Butylphenyl)(cyclopropyl)methyl)-3-(hydroxymethyl)-6-methyl-1H-pyrazolo[3,4-d]pyrimidin-4(5H)-one], the Ki was 0.48 nM.
Take `Cc1nc2c(c(CO)nn2C(C)c2ccc(SC(F)(F)F)cc2)c(=O)[nH]1` (single isomer, unassigned) [Example 23, (S)- or (R)-3-(Hydroxymethyl)-6-methyl-1-(1-(4-(trifluoromethylthio)phenyl)ethyl)-1H-pyrazolo[3,4-d]pyrimidin-4(5H)-one]: the Ki came to 1.7 nM.
Consider `Cc1nc2c(c(CF)nn2C(c2ccc(OC(F)(F)F)cc2)C2CC2)c(=O)[nH]1` (single isomer, unassigned) [Example 224, (R)- or (S)-1-(Cyclopropyl(4-(trifluoromethoxy)phenyl)methyl)-3-(fluoromethyl)-6-methyl-1,5-dihydro-4H-pyrazolo[3,4-d]pyrimidin-4-one], for which the Ki was 0.94 nM.
Then `Cc1nc2c(c(CO)nn2C(c2ccc(OC(F)(F)F)cc2)C(C)C)c(=O)[nH]1` (single isomer, unassigned) [Example 84, (R)- or (S)-3-(Hydroxymethyl)-6-methyl-1-(2-methyl-1-(4-(trifluoromethoxy)phenyl)propyl)-1H-pyrazolo[3,4-d]pyrimidin-4(5H)-one], with 16 nM; and `CC(C)c1nc2c(c(CO)nn2C(C)c2ccc(C(F)(F)F)cc2)c(=O)[nH]1` (racemic) [Example 296, 3-(Hydroxymethyl)-6-(1-methylethyl)-1-{1-[4-(trifluoromethyl)phenyl]ethyl}-1,5-dihydro-4H-pyrazolo[3,4-d]pyrimidin-4-one], with 36 nM; and `COCc1nc2c(c(CO)nn2C(C)c2ccc(C(F)(F)F)cc2)c(=O)[nH]1` (single isomer, unassigned) [Example 293], with 3.6 nM.
Consider `CC(c1ccc(C(F)(F)F)cc1)n1nc(CO)c2c(=O)[nH]c(C(F)F)nc21` (centres unmarked) [Example 284, 6-(Difluoromethyl)-3-(hydroxymethyl)-1-(1-(4-(trifluoromethyl)phenyl)ethyl)-1H-pyrazolo[3,4-d]pyrimidin-4(5H)-one], for which the Ki is 69 nM.
`Cc1nc2c(c(CO)nn2C(c2ccc(OC(F)(F)F)c(F)c2)C2CC2)c(=O)[nH]1` (single isomer, unassigned) [Example 92, (R)- or (S)-1-(Cyclopropyl(3-fluoro-4-(trifluoromethoxy)phenyl)methyl)-3-(hydroxymethyl)-6-methyl-1H-pyrazolo[3,4-d]pyrimidin-4(5H)-one]: the Ki was found to be 10 nM.

For orientation: Ki means the dissociation constant of the complex between target and ligand, obtained from inhibition or displacement.
